{"source": "patent EP0437790B1", "about": "“Antithrombotic compounds” (MERRELL DOW PHARMACEUTICALS INC., priority 1989, dated 1991)", "key": {"[1]": {"tested_on": "canine", "assay": "canine model of cyclic coronary blood flow reduction (Folts)", "format": "in vivo", "settings": "Canis lupus familiaris, iv, cyclic flow reduction of the left anterior descending coronary artery, read-out: DOSAGE TO PREVENT CFR", "source_text": "This procedure is well known in the art and has been described by John D. Folts, Edward B. Crowell Jr. and George G. Rowe, Circulation Vol 54, pages 365-370 (1976).\nIn Folts's model, the left anterior descending coronary artery of a canine is surgically isolated and the endothelial lining of this artery is purposefully damaged by squeezing the vessel in order to insure that the platelets will have the opportunity to come in contact with the collagen underlying the endothelial lining. This initiates the process of thrombus formation which was described above. An electronic flow probe is then placed on the artery so that blood flow through this vessel can be measured. A constrictor is then placed around the artery to produce a critical stenosis. The stenosis is said to be critical because the degree of stenosis is adjusted to abolish the hyperemic response following a 15 second occlusion of the artery. Shortly after producing the critical stenosis, blood flow through this segment of coronary artery will slowly decrease to near zero followed by a sudden return to control levels. The slow decrease in blood flow is caused by the formation of a platelet thrombus which occludes the artery. The sudden return of blood flow is due to dislodgement of the thrombus and/or its resulting conversion into an emboli.\nThis model can be utilized to test compounds for the ability to inhibit platelet aggregation and therefore prevent the formation of thrombi.\n(§1) 1-(4-Fluorophenyl)-2-[4-[(4-methanesulfonamidophenyl)carbonyl]-1-piperidinyl]-ethanone (Compound #1) and 1-(4-fluorophenyl)-2-[4-[(4-acetamidophenyl)carbonyl]-1-piperidinyl]-ethanone (Compound #2) were tested in this model. For comparative purposes, 1-(3-pyridyl)-2-[4-[(4-methanesulfonamidophenyl)carbonyl]-1-piperidinyl]-ethanone (Compound #3) was also tested in this model. This compound was prepared and described in Example 35 of European Patent Application 0 235 752, supra."}, "[2]": {"target": "T1, 5HT₂ receptor (Rattus norvegicus, UniProt P14842)", "T1 construct": "from tissue; host or cells: Brain membranes (rat frontal cortex)", "T1 sequence (P14842 whole entry)": "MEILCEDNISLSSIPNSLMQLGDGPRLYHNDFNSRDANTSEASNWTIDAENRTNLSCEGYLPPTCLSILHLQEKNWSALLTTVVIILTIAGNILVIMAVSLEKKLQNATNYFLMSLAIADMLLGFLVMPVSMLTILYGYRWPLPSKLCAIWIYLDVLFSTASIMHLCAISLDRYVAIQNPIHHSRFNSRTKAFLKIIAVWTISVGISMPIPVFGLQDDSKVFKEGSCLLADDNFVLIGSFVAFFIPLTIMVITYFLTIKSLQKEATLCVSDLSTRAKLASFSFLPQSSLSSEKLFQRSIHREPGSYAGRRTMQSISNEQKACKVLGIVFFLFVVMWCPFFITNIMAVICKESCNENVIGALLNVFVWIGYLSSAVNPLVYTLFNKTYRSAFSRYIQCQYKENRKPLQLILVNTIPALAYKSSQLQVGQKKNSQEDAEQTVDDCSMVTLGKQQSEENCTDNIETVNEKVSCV", "assay": "[³H] spiroperidol binding test", "settings": "decrease in binding of [³H] spiroperidol to 5HT₂ receptors; read-out: IC₅₀", "source_text": "As noted above, the compounds are also serotonin 5HT₂ antagonists. […] In this test, 5HT₂ receptors are exposed to both [³H] spiroperidol, (a substance known to have a specific affinity for the receptor) and the test compound. The extent to which there is a decrease in binding of the [³H] spiroperidol to the receptor is indicative of the affinity of the test compound for the 5HT₂ receptor.\nas §1, with “procedure.” for “model.”, “tested.” for “tested in this model. This compound was prepared and described in Example 35 of European Patent Application 0 235 752, supra.”"}, "[3]": {"tested_on": "5HT₂ receptor", "assay": "5-DMT head twitch test", "format": "in vivo", "settings": "ip; mice; head twitch induced by 5-methoxy-N,N-dimethyltryptamine", "protocol": "Psychopharmacol., Vol. 3, pages 89-92, (1979). The administration of 5-methoxy-N,N-dimethyltryptamine (DMT) to mice typically produces a characteristic head twitch in the mice. In this test, the mice are administered 5-DMT and a test compound. An absence of head twitches in the mice is considered to be predictive of the ability of the test compound to antagonize the 5HT₂ receptor in vivo."}}}
{"smiles": "CS(=O)(=O)Nc1ccc(C(=O)C2CCN(CC(=O)c3ccc(F)cc3)CC2)cc1", "note": "[Compound #1, 1-(4-Fluorophenyl)-2-[4-[(4-methanesulfonamidophenyl)carbonyl]-1-piperidinyl]-ethanone]", "values": [{"measurement": "minimal effective dose", "setting": "[1]", "value": 0.001, "unit": "mg/kg"}, {"measurement": "IC50", "setting": "[2]", "value": 78, "unit": "nM"}, {"measurement": "ED₅₀ FOR ABOLITION OF HEAD TWITCH", "setting": "[3]", "value": 0.034, "unit": "mg/kg"}]}
{"smiles": "CC(=O)Nc1ccc(C(=O)C2CCN(CC(=O)c3ccc(F)cc3)CC2)cc1", "note": "[Compound #2, 1-(4-fluorophenyl)-2-[4-[(4-acetamidophenyl)carbonyl]-1-piperidinyl]-ethanone]", "values": [{"measurement": "minimal effective dose", "setting": "[1]", "value": 0.001, "unit": "mg/kg"}, {"measurement": "IC50", "setting": "[2]", "value": 20, "unit": "nM"}, {"measurement": "ED₅₀ FOR ABOLITION OF HEAD TWITCH", "setting": "[3]", "value": 0.051, "unit": "mg/kg"}]}
{"smiles": "CS(=O)(=O)Nc1ccc(C(=O)C2CCN(CC(=O)c3cccnc3)CC2)cc1", "note": "[Compound #3, 1-(3-pyridyl)-2-[4-[(4-methanesulfonamidophenyl)carbonyl]-1-piperidinyl]-ethanone, reference compound]", "values": [{"measurement": "minimal effective dose", "setting": "[1]", "value": "> 0.1", "unit": "mg/kg"}, {"measurement": "IC50", "setting": "[2]", "value": "> 5000", "unit": "nM"}, {"measurement": "ED₅₀ FOR ABOLITION OF HEAD TWITCH", "setting": "[3]", "value": "> 200", "unit": "mg/kg"}]}
